US20250057864A1, “COMPOSITION FOR IMPROVING EXERCISE PERFORMANCE COMPRISING GYPENOSIDE COMPOUND AS ACTIVE INGREDIENT” (BTC CORPORATION, priority 2022, published 2025)

Tests used:
[1] = test system: p-AMPK, p-Sirt1, p-p38, p-Nrf2 in C2C12 cells; experiment: Western blot of proteins related with PGC-1α activation in C2C12 cells; format: cell-based, mice; conditions: C2C12, 0.36 μg/mL (Cr 5 μg/mL); for Protein expression level p-AMPK / Protein expression level p-Nrf2 / Protein expression level p-Sirt1 / Protein expression level p-p38: 7 days; for p-AMPK/AMPK ratio / p-Nrf2/Nrf2 ratio / p-Sirt1/Sirt1 ratio / p-p38/p38 ratio: control G1 = 1.00
Method: C2C12 cells were dispensed into a 6-well plate at 2×10^5 cells/well and stabilized for 24 hours. In order to investigate the effect of each test substance on muscle cell differentiation, each test substance was added to the myocyte differentiation medium. The cells were cultured for 4 days (mRNA analysis) or 7 days (protein analysis) after exchanging the cell culture medium with the myocyte differentiation medium treated with each test substance, as shown in Table 2.
C2C12 cells were dispensed into a 6-well plate at 2×10^5 cells/well and stabilized for 24 hours. The cells were cultured for 7 days after exchanging the culture medium with a myocyte differentiation medium containing the test substance. After the induction of differentiation for 7 days, the cells were homogenized by adding a lysis buffer (20 mmol/L HEPES, pH 7.5, 150 mmol/L NaCl, 1% Triton X-100, 1 mmol/L EDTA, 1 mmol/L EGTA, 100 mmol/L NaF, 10 mmol/L sodium pyrophosphate, 1 mmol/L Na3VO4, 20 μg/mL aprotinin, 10 μg/mL antipain, 10 μg/mL leupeptin, 80 μg/mL benzamidine HCl, 0.2 mmol/L PMSF) and a total cell lysate was obtained through centrifugation. The protein quantity of the total cell lysate was measured using a BCA protein assay kit (Thermo Scientific). The total cell lysate (50 μg) was separated by 10% sodium dodecyl sulfate polyacrylamide gel electrophoresis (SDS-PAGE) and then transferred to a polyvinylidene difluoride membrane (Milipore). The membrane was blocked for 1 hour in 5% skim milk-TBST (20 mmol/L Tris·HCl, pH 7.5, 150 mmol/L NaCl, 0.1% Tween 20) and then incubated for 16 hours at 4° C. or for 1 hour at room temperature after adding antibodies. Thereafter, horseradish peroxidase (HRP)-linked anti-rabbit IgG or HRP-linked anti-mouse IgG was added and the mixture was stirred for 1 hour. The detected protein bands were visualized by enhanced chemiluminescence using a Luminata™ Forte Western HRP substrate (Millipore). The level of protein expression was quantified using the ImageQuant™ LAS 500 imaging system (GE Healthcare Bio-Sciences AB).
The result of western blot analysis conducted using the total cell lysate obtained by treating with the test substance to investigate the effect of the test substance on the changes in proteins associated with PGC-1α activation is shown in Table 6.
Based on the western blot analysis result, the activity of each protein was evaluated from the ratio of activation.

C2C12 cells = experiment: Intracellular ROS production in C2C12 cells (DCF-DA); format: cell-based, mice; conditions: oxidative stress by 50 μM TBHP, 1 h pretreatment with test substance
Method: C2C12 cells were dispensed into a 96-well plate at 1×10^4 cells/well and stabilized for 24 hours. Subsequently, the cells were cultured for 1 hour after exchanging with the culture medium with the myocyte differentiation medium containing each test substance. After 1 hour, the cells were washed with PBS and cultured further for 3 hours with a culture medium containing 50 μM tert-butyl hydrogen peroxide (TBHP), and the ROS level in the cells was measured using a DCF-DA assay kit (Abcam) according to the manufacturer's method.
In order to investigate the effect of each of the compositions according to Examples 1 to 4 on ROS production in C2C12 cells, ROS production was measured using 2′,7′-dichlorofluorescin diacetate (DCF-DA). DCF-DA was measured using the principle that it is oxidized by ROS in cells and is converted to DCF, which emits fluorescence.

ICR mice = experiment: Weight-loaded forced swimming test, time to exhaustion; format: in vivo; conditions: forced swimming with 5% BW load, day 14, oral 7 mg/kg BW
Method: After an acclimatization period of 1 week, healthy animals were selected and divided into 6 groups of 10 mice per group according to the randomized block design. A normal control group was orally administered with 5% Tween 80-saline, and a composition was orally administered with Creatine monohydrate (Cr) at 75 mg/kg body weight (BW). Test groups (G2 to G5) were orally administered the compositions of Examples 1 to 4 dissolved in drinking water to 7 mg/kg body weight (BW) at regular times for 17 days. Throughout the test period, the experimental animals were given free access to solid feed for experimental animals (Cargill Agri Puna) and drinking water.
Weight-loaded forced swimming test was performed for the experimental animals as follows. A plastic pool (90×45×45 cm) was filled with water at the depth of 35 cm and the temperature of the water was maintained at 25±1° C. After attaching a weight (5% of the body weight of the experimental animal) to the tail, the experimental animal was forced to swim in the pool.
On days 10 and 12 after the administration of the test substance, swimming adaptation exercise was given twice for 15 minutes each. Two days after the final swimming adaptation exercise (on day 14 after the administration of the test substance), forced swim test was performed after fasting the experimental animal for 16 hour, and the time until exhaustion was measured. […]

| SMILES | Protein expression level p-AMPK [1] | Protein expression level p-Nrf2 [1] | Protein expression level p-Sirt1 [1] | Protein expression level p-p38 [1] | p-AMPK/AMPK ratio [1] | p-Nrf2/Nrf2 ratio [1] | p-Sirt1/Sirt1 ratio [1] | p-p38/p38 ratio [1] | ROS production (fluorescence intensity) (C2C12 cells) | Time to exhaustion (ICR mice) [s] |
| --- | --- | --- | --- | --- | --- | --- | --- | --- | --- | --- |
| CN(CC(=O)O)C(=N)N.O [Cr, Creatine monohydrate, reference compound] | 104.6 ± 14.4 % of control group | 116.2 ± 11.4 % of control group | 114.0 ± 11.1 % of control group | 151.5 ± 41.0 % of control group | 1.09 ± 0.13 | 1.20 ± 0.26 | 1.11 ± 0.10 | 1.15 ± 0.29 |  |  |
| CC(C)=CCC[C@](C)(O)C1CC[C@]2(C)C1[C@H](O)CC1[C@@]3(C)C[C@@H](O)C(OC4OC(CO)C(O)C(O)C4OC4OC(CO)C(O)C(O)C4O)C(C)(C)C3CC[C@]12C (stereo partly drawn) [Example 1, Gypenoside L] | 117.7 ± 7.2 % of control group | 135.1 ± 1.6 % of control group | 143.4 ± 5.6 % of control group | 133.1 ± 7.1 % of control group | 1.27 ± 0.25 | 1.50 ± 0.11 | 1.38 ± 0.06 | 1.27 ± 0.07 | 22.12 ± 0.70 | 1193.4 ± 176.8 |
